Values of other authors as cited in paper PMC2748991 (Planta medica, 2009).

Tests used:
trypsin = settings: ref [5]
elastase = settings: ref [3],[4]

For pompanopeptin A, the “trypsin inhibition (in words)” value (trypsin) is listed as “trypsin inhibitor”.

For lyngbyastatin 5, the “elastase inhibition (in words)” value (elastase) is listed as “potent inhibitors”.

For lyngbyastatin 6, the “elastase inhibition (in words)” value (elastase) is given as “potent inhibitors”.
